Laboratory results from patent EP0981349B1, “5-ALPHA-PREGNAN-3-BETA-OL-20-ONE SULFATE FOR THE TREATMENT OF TUMOURS AND CNS DISEASES” (Wyeth, priority 1997, dated 1998).
Where a name gives a salt, the structure may show the parent alone.

What was measured:
progesterone receptors = target: T1, progesterone receptors (Homo sapiens, UniProt P06401); experiment: Stimulation of alkaline phosphatase enzyme activity in T47D cells (progestational activity)
T1 sequence (P06401 1-933): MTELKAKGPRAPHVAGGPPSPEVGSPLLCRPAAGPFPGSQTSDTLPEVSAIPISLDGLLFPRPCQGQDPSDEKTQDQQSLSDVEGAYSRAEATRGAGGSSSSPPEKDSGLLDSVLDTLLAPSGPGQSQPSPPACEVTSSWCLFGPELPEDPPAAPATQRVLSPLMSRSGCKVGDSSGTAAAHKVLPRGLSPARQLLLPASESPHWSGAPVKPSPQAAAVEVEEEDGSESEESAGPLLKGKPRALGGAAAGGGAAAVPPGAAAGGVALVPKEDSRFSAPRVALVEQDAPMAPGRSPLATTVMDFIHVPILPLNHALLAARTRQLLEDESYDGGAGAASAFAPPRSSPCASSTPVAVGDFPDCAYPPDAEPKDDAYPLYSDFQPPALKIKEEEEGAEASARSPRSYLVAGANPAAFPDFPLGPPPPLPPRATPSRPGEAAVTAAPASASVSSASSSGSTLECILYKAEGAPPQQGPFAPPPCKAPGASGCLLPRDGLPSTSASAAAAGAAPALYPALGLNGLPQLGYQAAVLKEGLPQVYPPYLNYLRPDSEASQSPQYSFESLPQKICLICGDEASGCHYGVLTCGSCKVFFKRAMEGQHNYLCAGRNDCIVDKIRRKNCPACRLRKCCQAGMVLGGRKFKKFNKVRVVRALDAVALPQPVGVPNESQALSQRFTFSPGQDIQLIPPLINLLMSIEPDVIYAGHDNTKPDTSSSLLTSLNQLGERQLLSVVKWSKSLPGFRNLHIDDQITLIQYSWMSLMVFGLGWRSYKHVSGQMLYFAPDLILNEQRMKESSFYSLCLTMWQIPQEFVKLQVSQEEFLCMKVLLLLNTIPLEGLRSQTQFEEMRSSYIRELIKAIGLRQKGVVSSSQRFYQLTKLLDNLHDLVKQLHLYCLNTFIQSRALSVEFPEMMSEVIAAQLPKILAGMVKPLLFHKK
Method: The progestational activity of a representative compound of this invention (5α-pregnan-3β-ol-20-one 3-sulfate ester sodium salt) was evaluated in an in vitro standard pharmacological test procedure.
In this test procedure, the progestational activity of a compound is quantified based on its stimulation of alkaline phosphatase enzyme activity in T47D cells, a human breast cancer cell line which expresses high levels of progesterone receptors. This is a well established test procedure in which both the progestin receptors and the response stimulated by activated progestin receptors are endogenous to the cells. Cells are pre-conditioned in low serum medium for one day and then treated with test compounds. Alkaline phosphatase activity is measured 24 hr after treatment.

calcium channel currents = experiment: Whole cell recording of calcium currents from cultured hippocampal neurons; type: cell-based; settings: 2 µM, p = 0.044
Method: (§1) Briefly, the following procedure was used.
(§2) Whole cell recording techniques were used to record calcium and potassium currents from cultured hippocampal neurons. The compounds to be evaluated were made fresh each day in a 400 µM ethanol stock solution. The test compounds were diluted in saline to obtain a final concentration of 2 µM. The amplitude of calcium or potassium currents in control, test compound, and washout solutions was measured from at least 10 current traces for each condition. To compensate for rundown of the calcium current with time, control and washout currents were averaged. The current amplitude with drug was divided by the averaged control and washout current to determine the percent change. The means, standard deviations and errors for each test compound were calculated and significance from control was determined using the paired T-Test.

[1] = test system: potassium channel currents; experiment: Whole cell recording of potassium currents from cultured hippocampal neurons; type: cell-based; settings: 2 µM, p = 0.0006
Method: as §1, §2

SMILES	EC50 (progesterone receptors) [µM]	Calcium channel currents decrease versus control (calcium channel currents) [%]	increased potassium channel currents versus control [1] [%]	fold induction of alkaline phosphatase (progesterone receptors; t47d cells, 24 h)
CC(=O)[C@H]1CC[C@H]2[C@@H]3CC[C@H]4C[C@@H](OS(=O)(=O)O)CC[C@]4(C)[C@H]3CC[C@]12C [5α-pregnan-3β-ol-20-one 3-sulfate ester sodium salt]	5	4.64 ± 1.64	21.76 ± 2.40	
CC(=O)O[C@]1(C(C)=O)CC[C@H]2[C@@H]3C[C@H](C)C4=CC(=O)CC[C@]4(C)[C@H]3CC[C@@]21C [medroxyprogesterone acetate, reference compound]				30 - 60 fold
